From patent US5677459A, “Methods for the preparation of modulators of acetylcholine receptors” (Sibia Neurosciences, Inc., priority 1995, dated 1997)
Read-outs that look alike come from different tables or passages of the source.

Tests used:
[1] = molecular target: T1, nicotinic acetylcholine receptor (Rattus norvegicus, UniProt P09483+P12390); experiment: ^3 H-Nicotine binding/displacement, rat cerebral membranes
T1 construct: the brains removed and the cerebral cortex dissected on ice; from tissue; host or cells: cerebral cortex synaptic membranes of male Sprague-Dawley rats
T1 sequence (P09483 31-630): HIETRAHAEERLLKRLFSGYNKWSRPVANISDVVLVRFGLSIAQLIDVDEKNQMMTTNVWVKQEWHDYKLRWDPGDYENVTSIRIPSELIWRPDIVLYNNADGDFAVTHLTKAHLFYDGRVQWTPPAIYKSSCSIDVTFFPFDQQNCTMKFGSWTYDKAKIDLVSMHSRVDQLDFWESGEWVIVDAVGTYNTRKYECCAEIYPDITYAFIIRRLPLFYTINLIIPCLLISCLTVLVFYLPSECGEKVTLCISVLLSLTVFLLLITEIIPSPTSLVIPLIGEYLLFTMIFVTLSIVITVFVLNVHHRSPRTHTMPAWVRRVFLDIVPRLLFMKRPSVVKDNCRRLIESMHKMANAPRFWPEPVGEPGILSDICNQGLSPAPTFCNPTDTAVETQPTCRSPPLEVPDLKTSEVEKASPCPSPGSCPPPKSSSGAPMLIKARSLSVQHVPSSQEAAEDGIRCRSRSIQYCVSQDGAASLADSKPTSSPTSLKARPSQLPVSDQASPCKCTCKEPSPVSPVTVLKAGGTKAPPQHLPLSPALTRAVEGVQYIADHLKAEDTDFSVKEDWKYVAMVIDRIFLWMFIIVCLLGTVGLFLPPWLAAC
T1 sequence (P12390 25-500): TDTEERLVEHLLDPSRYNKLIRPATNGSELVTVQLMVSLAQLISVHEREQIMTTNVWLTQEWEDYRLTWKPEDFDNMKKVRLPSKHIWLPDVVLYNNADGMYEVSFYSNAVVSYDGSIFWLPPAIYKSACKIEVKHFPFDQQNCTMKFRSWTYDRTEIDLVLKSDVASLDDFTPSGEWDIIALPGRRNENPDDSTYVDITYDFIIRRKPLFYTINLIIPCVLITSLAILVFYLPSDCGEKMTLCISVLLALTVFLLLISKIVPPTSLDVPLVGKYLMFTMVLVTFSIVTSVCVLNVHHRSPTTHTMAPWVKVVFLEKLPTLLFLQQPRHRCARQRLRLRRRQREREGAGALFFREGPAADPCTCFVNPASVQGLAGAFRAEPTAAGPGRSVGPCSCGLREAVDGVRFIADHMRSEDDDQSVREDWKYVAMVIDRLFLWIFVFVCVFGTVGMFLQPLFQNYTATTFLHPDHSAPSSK
Method: ^3 H-Nicotine binding to rat cerebral membranes was performed according to modifications of the method of Flyn and Mash (J. Neurochem. 47:1948 (1986)). ^3 H-Nicotine (80 ci/mmol; New England Nuclear Corporation, Boston, Mass.) was used as the ligand for nicotinic acetylcholine receptor binding assays. All other reagents were purchased from the Sigma Chemical Co. (St. Louis, Mo.).
Male Sprague-Dawley rats (250-400 gm) were sacrificed by decapitation, the brains removed and the cerebral cortex dissected on ice. Synaptic membranes were prepared by homogenizing the cortical tissue in 20 volumes of ice-cold modified Tris buffer (50 mM Tris pH 7.4, 120 mM NaCl, 5 mM KCl, 2 mM EDTA, 1 mM PMSF) with a polytron (20 sec at setting 5-6) followed by centrifugation (15 min at 5,000×g) at 4° C. The resultant pellet was rehomogenized and centrifuged twice. The final pellet was resuspended in ice-cold assay buffer (50 mM Tris pH 7.4, 120 mM NaCl, 5 mM KCl, 2 mM CaCl2, 1 mM MgCl2) at a concentration of membrane equivalent to 1 gm wet weight cortex per 10 ml buffer. After protein determination the final membrane preparation was diluted with buffer to 3 mg protein/mi. This membrane preparation was used in either the fresh state or frozen (-70° C.) then thawed.
The binding assay is performed manually using 96-well plates, or using a Biomek automated work station (Beckman Instrument Co.). ^3 H-Nicotine was diluted in assay buffer to give a final concentration of 1.9 nM. The Biomek automated work station was programmed to automatically transfer 750 μl of assay buffer with ^3 H-nicotine, 230 μl of membrane preparation and 20 μl of solution containing the compound of interest in assay buffer, DMSO, ethanol:DMSO (1:1) or appropriate vehicle to the 96-well plate. Atropine was added to the incubation buffer at a final concentration of 3 μM to block binding to muscarinic acetylcholine receptor sites. The plates were maintained on ice for 60 min and the tissue-bound radioactivity was separated from the free by rapid filtration in a Brandel Harvester onto GF/C filters presoaked in 0.5% polyethyleneimine for at least 2 hr. The filters were washed with 4×2 ml of ice-cold assay buffer and filters were transferred to vials to which 4 ml of scintillation cocktail was added. The radioactivity was measured in a LS-6500 Beckman Liquid Scintillation Counter in an autodpm mode. Data were analyzed bylog-logit transformation or non-linear regression analysis (e.g., employing GraphPad Prism, available from GraphPad Software, San Diego, Calif.) to give IC50 values. Non-specific binding was defined by 10 μM cytisine.

[2] = molecular target: muscarinic acetylcholine receptors; experiment: ^3 H-QNB (quinuclidinyl benzilate) binding/displacement, rat cerebral membranes; conditions: ^3 H-QNB 60 pM, rat cerebral membranes
[3] = system: ^3 H-Dopamine release, rat striatal slices; experiment: Ligand-stimulated ^3 H-dopamine release from rat striatal slices; type: cell-based; conditions: in vitro slices, 300 μM
[4] = system: ^3 H-Norepinephrine release, rat thalamus slices; experiment: Ligand-stimulated ^3 H-norepinephrine release from rat thalamus slices; type: cell-based; conditions: in vitro slices, 300 μM
[5] = system: ^3 H-Norepinephrine release, rat prefrontal cortex slices; experiment: Ligand-stimulated ^3 H-norepinephrine release from rat prefrontal cortex slices; type: cell-based; conditions: in vitro slices, 300 μM
Method: Measurement of ^3 H-dopamine release from rat striatal slices was performed according to the method of Sacaan et al. (J. Neurochem. 59:245 (1992)). Male Sprague-Dawley rats (250-300 g) were decapitated and the striata or olfactory tubercles dissected quickly on a cold glass surface. The tissue was chopped to a thickness of 300 μm with a McIlwain tissue chopper. After chopping again at right angles the tissue was dispersed and incubated for 10 min. at 37° C. in oxygenated Kreb's buffer. ^3 H-Dopamine (40 Ci/mmol, NEN- Dupont, Boston, Mass.) was added (50 nM) and the tissue was incubated for 30 min. in Kreb's buffer containing 10 μM pargyline and 0.5 mM ascorbic acid. Aliquots of the minced tissue were then transferred to chambers of a Brandel Superfusion system in which the tissue was supported on Whatman GF/B filter discs. The tissue was then superfused with buffer at a constant flow rate of 0.3 ml/min by means of a Brandel peristaltic pump. The perfusate was collected in plastic scintillation vials in 3-min fractions, and the radioactivity was estimated by scintillation spectrophotometry. The superfusate for the first 120 min was discarded. After two baseline fractions had been collected, the superfusion buffer was switched to fresh buffer with or without compound of interest. At the end of the experiment the filter and the tissue were removed, and the radiolabeled neurotransmitter content was estimated after extraction into scintillation fluid. The fractional efflux of radiolabeled neurotransmitter was estimated as the amount of radioactivity in the perfusate fraction relative to the total amount in the tissue.
Following essentially the same procedure as set forth above, the amount of ^3 H-norepinephrine released from rat hippocampus, thalamus and prefrontal cortex slices superfused with buffer containing (or lacking) compounds of interest was also measured.
Results of studies of the effects of an invention compound (as compared to the effect of nicotine) on the release of neurotransmitters from rat brain slices are presented in Table II. Results presented in Part A of the Table are expressed as the percent fractional release and results presented in Part B of the Table are expressed as a percentage, relative to nicotine response.

[6] = system: ^3 H-Dopamine release, rat olfactory tubercles; experiment: Ligand-stimulated ^3 H-dopamine release from rat olfactory tubercles; type: cell-based; conditions: in vitro slices, 300 μM
[7] = ^3 H-nicotine 1.9 nM, rat cerebral membranes, read-out: IC50, Nicotine

SMILES	IC50 ([1]; IC50, Nicotine) [nM]	IC50 [2] [nM]	percent fractional release, ^3 H-Dopamine, Striatum [3] [%]	percent fractional release, ^3 H-Norepinephrine, Thalamus [4] [%]	percent fractional release, ^3 H-Norepinephrine, Prefrontal Cortex [5] [%]	percent fractional release, ^3 H-Dopamine, Olfactory Tubercles [6] [%]	IC50 [1, 7] [nM]
C#Cc1cncc(C2CCCN2C)c1.O=C(O)/C=C/C(=O)O (racemic) [R^5 = ethynyl (racemic), 5-Ethynyl-3-(1-methyl-2-pyrrolidinyl)pyridine fumarate]	4.6	10100	2.56	0.31	0.97	6.68	–
CN1CCCC1c1cncc(-c2ccc(O)c(Cl)c2)c1.O=C(O)/C=C/C(=O)O (stereo not drawn) [R^5 = 3-chloro-4-hydroxyphenyl, 5-(4-hydroxy-3-chlorophenyl)-3-(1-methyl-2-pyrrolidinyl)pyridine fumarate]	–	> 10000	8.34	3.23	2.94	11.4	28
CN1CCCC1c1cncc(-c2cccc(Cl)c2)c1.O=C(O)/C=C/C(=O)O (stereo not drawn) [R^5 = 3-chlorophenyl, 5-(3-Chlorophenyl)-3-(1-methyl-2-pyrrolidinyl) pyridine fumarate]	–	3700	2.0	1.48	1.7	3.25	120
COc1ccc(-c2cncc(C3CCCN3C)c2)cc1F.O=C(O)/C=C/C(=O)O (stereo not drawn) [R^5 = 3-fluoro-4-methoxyphenyl, 5-(3-Fluoro-4-methoxyphenyl)-3-(1-methyl-2-pyrrolidinyl)pyridine fumarate]	–	30500	3.1	1.75	2.0	2.3	27
